{"source": "patent EP0470323A2", "about": "“New salts of the nicotinic acid with aminobenzylic compounds and their pharmaceutical use” (BROMLEY LIMITED, priority 1990, dated 1992)", "key": {"[1]": {"test_system": "five strains of Typhumurium Salmonella", "assay": "Mutagenic action of urines of intragastrically treated rats on Salmonella", "assay_type": "cell-based", "details": "urines of rats treated intragastrically with two doses, with metabolic activation, beta-glucoronidase absent"}, "[2]": {"test_system": "hypertrigliceridaemia from olive oil in the rats", "assay": "Hypertriglyceridaemia from olive oil in the rat (serum lactescence)", "assay_type": "in vivo", "experimental": "The method described by Zucker I.H. (Sci. Anal. Lab. 24, 114, 1972) has been followed.\nMale rats have been used, whose body weight was 150-200 g. The animals were without eating with water \"ad libitum\" and all this beginning 24 hours before the experiment. The hyperlipaemia was induced by the administration of olive oil by mouth; its composition as to the fat acids was as follows: palmitic acid 10% palmitoleic acid 1%, stearic acid 3%, […] and linoleic acid 7% (all percentages are by weight). The quantity of olive oil administered, by means of a gastric probe, was 10 ml/kg. The treatments were made by finely pounding with a china mortar and by suspending in the olive oil the examined compounds. […] The positive control animals received only olive oil; moreover, there was also a group of negative control animals who received plain water in quantities of 10 ml/kg. Every three hours a group of rats (10) was killed in a light ethereal anaesthesia, in order to be able to appreciate the percentage of triglycerides in the blood. The animals were bled by cutting them the carotids and the blood was collected in plastic test-tubes, capacity 10 ml each, and was centrifuged for ten minutes at 3500 rpm. The evaluated parameter was the lactescence of the serum, which is directly proportional to the contents of kilomicrons and therefore of triglycerides (Zucker, see above the mention). The serum has been diluted 1:5 in a physiologic solution and was read at the spectrophotometer at […] against white (physiologic solution). From the individual optical Density (D.O.) data one could calculate for each group the average of the standard error. The statistical analysis was performed by means of the t of Dunnett."}, "[3]": {"test_system": "Hypertriglyceridaemia caused by ethanole in the rats", "assay": "Hypertriglyceridaemia caused by ethanol in rats, duration of the effects", "assay_type": "in vivo", "details": "rat, dose 1 mM/kg/os", "description": "For this test group the methods described by Sistori C.R. and colleagues (Atherosclerosis 30, 45; 1978) is followed.\nThe hypertriglyceridaemia has been induced into the male rats having a body weight of 160 - 170 g by giving them to drink, for 4 consecutive days, a solution of 10% ethanole in water.\nIn order to perform the particular kinetics of the compound in accordance with the example 1 following the instant invention, it was considered appropriate, anyway, to evaluate the duration of the hypolipaemizing effect in comparison to that of the nicotinic acid.\nA group of normal animals was treated with the vehicle only and did serve as a negative control group."}}}
{"smiles": "COc1cc(OC)c(C(=O)CCCN2CCCC2)c(OC)c1", "note": "[Example 1, 4-(1 pyrrholydinyl)-1-(2,4,6 trimethoxypheniyl)-1-nicotinized butanone]", "values": [{"measurement": "mutagenic action", "setting": "[1]", "result": "any mutagenic action did not result"}, {"measurement": "Serum opt.density at the indicated times (M ± E.S.)", "setting": "[2]; dose 1 mM/kg/os, 3 h", "result": "247 ± 15,3"}, {"measurement": "Serum opt.density at the indicated times (M ± E.S.)", "setting": "[2]; dose 1 mM/kg/os, 6 h", "result": "1121 ± 51,6"}, {"measurement": "Serum opt.density at the indicated times (M ± E.S.)", "setting": "[2]; dose 1 mM/kg/os, 9 h", "result": "987 ± 36,7"}, {"measurement": "Serum opt.density at the indicated times (M ± E.S.)", "setting": "[2]; dose 1 mM/kg/os, 12 h", "result": "724 ± 28,4"}, {"measurement": "Serum opt.density at the indicated times (M ± E.S.)", "setting": "[2]; dose 1 mM/kg/os, 15 h", "result": "458 ± 21,3"}, {"measurement": "Serum opt.density at the indicated times (M ± E.S.)", "setting": "[2]; dose 1 mM/kg/os, 18 h", "result": "229 ± 22,6"}, {"measurement": "Serum opt.density at the indicated times (M ± E.S.)", "setting": "[2]; dose 2 mM/kg/os, 3 h", "result": "271 ± 15,9"}, {"measurement": "Serum opt.density at the indicated times (M ± E.S.)", "setting": "[2]; dose 2 mM/kg/os, 6 h", "result": "856 ± 44,2"}, {"measurement": "Serum opt.density at the indicated times (M ± E.S.)", "setting": "[2]; dose 2 mM/kg/os, 9 h", "result": "624 ± 27,4"}, {"measurement": "Serum opt.density at the indicated times (M ± E.S.)", "setting": "[2]; dose 2 mM/kg/os, 12 h", "result": "451 ± 26,2"}, {"measurement": "Serum opt.density at the indicated times (M ± E.S.)", "setting": "[2]; dose 2 mM/kg/os, 15 h", "result": "294 ± 26,2"}, {"measurement": "Serum opt.density at the indicated times (M ± E.S.)", "setting": "[2]; dose 2 mM/kg/os, 18 h", "result": "212 ± 28,3"}, {"measurement": "Serum opt.density at the indicated times (M ± E.S.)", "setting": "[2]; dose 4 mM/kg/os, 3 h", "result": "260 ± 17,1"}, {"measurement": "Serum opt.density at the indicated times (M ± E.S.)", "setting": "[2]; dose 4 mM/kg/os, 6 h", "result": "720 ± 43,8"}, {"measurement": "Serum opt.density at the indicated times (M ± E.S.)", "setting": "[2]; dose 4 mM/kg/os, 9 h", "result": "612 ± 21,2"}, {"measurement": "Serum opt.density at the indicated times (M ± E.S.)", "setting": "[2]; dose 4 mM/kg/os, 12 h", "result": "400 ± 28,3"}, {"measurement": "Serum opt.density at the indicated times (M ± E.S.)", "setting": "[2]; dose 4 mM/kg/os, 15 h", "result": "226 ± 25,6"}, {"measurement": "Serum opt.density at the indicated times (M ± E.S.)", "setting": "[2]; dose 4 mM/kg/os, 18 h", "result": "184 ± 16,2"}, {"measurement": "% variation vs positive controls (Trigliceridi)", "setting": "[3]; 4 h", "result": "-38,2%"}, {"measurement": "Trigliceridi", "setting": "[3]; 4 h from the last treatment", "result": "158,9 ± 11,6 mg/100 ml"}, {"measurement": "% variation vs positive controls (Trigliceridi)", "setting": "[3]; 6 h", "result": "-42,6%"}, {"measurement": "Trigliceridi", "setting": "[3]; 6 h from the last treatment", "result": "135,6 ± 10,9 mg/100 ml"}, {"measurement": "% variation vs positive controls (Trigliceridi)", "setting": "[3]; 12 h", "result": "-31,5%"}, {"measurement": "Trigliceridi", "setting": "[3]; 12 h from the last treatment", "result": "141,0 ± 21,1 mg/100 ml"}, {"measurement": "% variation vs positive controls (Trigliceridi)", "setting": "[3]; 16 h", "result": "-22,1%"}, {"measurement": "Trigliceridi", "setting": "[3]; 16 h from the last treatment", "result": "145,3 ± 12,7 mg/100 ml"}, {"measurement": "% variation vs positive controls (Trigliceridi)", "setting": "[3]; 24 h", "result": "-9,2%"}, {"measurement": "Trigliceridi", "setting": "[3]; 24 h from the last treatment", "result": "150,1 ± 8,4 mg/100 ml"}]}
